In US20180117029A1, “Targeting Metabolic Vulnerability in Triple-Negative Breast Cancer” (Beth Israel Deaconess Medical Center, Inc., priority 2016, published 2018):

What was measured:
[1] = tested on: MDA-MB-231 tumor xenografts; test: MDA-MB-231 xenograft combination therapy study (tumor volume); assay type: in vivo, nude mice; conditions: for growth of MDA-MB-231 tumor xenografts (tumor volume): leflunomide 7.5 mg/kg i.p., doxorubicin 1 mg/kg i.p., 28 days
Experimental: Xenograft studies: Female nude mice (6 weeks old) were purchased from Taconic and maintained and treated under specific pathogen-free conditions. All procedures were approved by the Institutional Animal Care and Use Committee at Beth Israel Deaconess Medical Center (BIDMC) and conform to the federal guidelines for the care and maintenance of laboratory animals. The mice were injected subcutaneously with 4×10^6 MDA-MB-231 cells in medium containing 50% growth-factor-reduced, phenol red-free Matrigel (Corning). Tumor formation was examined every two to three days for the duration of the experiment. […] Tumors were collected and flash-frozen 24 hours after animals were exposed to vehicle or doxorubicin. […] Leflunomide (7.5 mg/kg) was administered on days 1-7, 10, 14, 17, 21 and 24 by i.p. injection. Doxorubicin (1 mg/kg) was administered on days 1, 7, 14 and 21 by i.p. injection. Mice were weighed on days 1, 7, 14, 21 and 28. Tumor volume was calculated using the following equation: Tumor volume=(π/6)(W^2)(L), where W represents width, and L represents length.

tumor xenograft models = conditions: single agent, references 22, 23; cited from earlier work
[2] = clinical use; cited from earlier work
SUM-159PT cells [3] = test: Fluorescence-based deoxyribonucleoside triphosphate assay in SUM-159PT cells; assay type: cell-based; conditions: for dCTP and dTTP (pyrimidine nucleoside triphosphate) levels, fluorescence-based assay: 0.5 μM doxorubicin or 12.5 μM cisplatin, 10 hours
Experimental: (§1) Deoxyribonucleoside triphosphate assay: Cells were maintained in full growth medium, and fresh medium was added at the time cells were treated with doxorubicin. In some cases, SUM-159PT cells were switched to Ham's F12 medium lacking glutamine. For metabolite extraction, medium was aspirated and ice-cold 60% (v/v) methanol was added. The insoluble material in lysates was pelleted by centrifugation at 10,000 g for 10 min. The resulting metabolite-containing supernatants were evaporated using a refridgerated SpeedVac. Samples were re-suspended in water and deoxyribonucleside triphosphate levels were measured as previously described (12).

[4] = tested on: human ovarian cancer cell lines (Karumochi, Ovcar3, Ovcar8, Skov3); test: LC-MS/MS metabolite profiling of ovarian cancer cell lines; assay type: cell-based; conditions: 2.5 μM cisplatin or 0.5 μM doxorubicin, 24 hours
Experimental: We treated four different human ovarian cancer cell lines with 2.5 μM cisplatin or 0.5 μM doxorubicin for 24 hours and harvested polar metabolites. The samples were profiled using LC-MS/MS for 303 endogenous metabolites. As in breast cancer cells, we observed increases in pyrimidine metabolites (FIGS. 7A-D).

SUM-159PT cells [5] = test: Propidium iodide viability assay in SUM-159PT cells; assay type: cell-based; conditions: for single-agent activity (percentage of dead cells) / sensitization of SUM-159PT cells to doxorubicin (percentage of dead cells): 80 μM PALA; for single-agent activity (percentage of dead cells): 0.3 μM brequinar or 20 μM A771726, without doxorubicin; for sensitization of SUM-159PT cells to doxorubicin (percentage of dead cells): 0.3 μM brequinar or 20 μM A771726 pre-treatment 12 hours
Experimental: Propidium iodide viability assay: Cell viability was assayed with a prodium iodide-based plate reader assay, as previously described (25). Briefly, cells in 96-well plates were treated with a final concentration of 30 μM propidium iodide for 60 minutes at 37° C. The initial fluorescence intensity was measured before digitonin was added to each well at a final concentration of 600 μM. After incubating for 30 minutes at 37° C., the final fluorescence intensity was measured. The fraction of dead cells was calculated by dividing the background-corrected initial fluorescence intensity by the final fluorescence intensity.

[6] = tested on: ovarian cancer cells (OVCAR3, OVCAR8); test: Viability by propidium iodide uptake in ovarian cancer cells; assay type: cell-based, human; conditions: brequinar pre-treatment 16 h, then doxorubicin 48 hours
Experimental: Since ovarian cancers display an increase in pyrimidine nucleotides following chemotherapy, we investigated the ability of pyrimidine synthesis inhibitors to sensitize these cells to chemotherapy. Cells were treated with varying doses of doxorubicin in combination with the DHODH inhibitor brequinar for 48 hours, and viability measured by propidium iodide uptake. As observed in breast cancer cells, brequinar also sensitized ovarian cancer cells to doxorubicin (FIGS. 8A-B).

SUM-159PT cells [7] = test: LC-MS/MS metabolomics profiling of SUM-159PT cells; assay type: cell-based; conditions: 0.5 μM doxorubicin, 10 hours, versus vehicle
Experimental: (§2) LC-MS/MS metabolomics profiling: For in vitro studies, SUM-159PT cells were maintained in full growth medium, and fresh medium was added at the time cells were treated with doxorubicin. For metabolite extraction, medium from biological triplicates was aspirated and ice-cold 80% (v/v) methanol was added. Cells and the metabolite-containing supernatants were collected and the insoluble material in lysates was pelleted by centrifugation at 10,000 g for 10 min. The resulting supernatant was evaporated using a refridgerated SpeedVac. For in vivo studies, ice-cold 80% (v/v) methanol was added to flash-frozen tumor tissue. Tissue was homogenized using a TissueLyser (Qiagen). The insoluble material was pelleted by centrifugation at 10,000 g for 10 min. The resulting supernatant was evaporated using a refridgerated SpeedVac. Samples were re-suspended using 20 μl HPLC-grade water for mass spectrometry. Ten microlitres was injected and analysed using a 5500 QTRAP hybrid triple quadrupole mass spectrometer (AB/SCIEX) coupled to a Prominence UFLC HPLC system (Shimadzu) with selected reaction monitoring (SRM). Peak areas from the total ion current for each metabolite SRM transition were integrated using MultiQuant v2.0 software (AB/SCIEX). Data analysis was performed using MetaboAnalyst.

[8] = tested on: TNBC cell lines (HCC1143, MDA-MB-468, CAL51 and MDA-MB-231); test: Fluorescence-based deoxyribonucleoside triphosphate assay in additional TNBC cell lines; conditions: 0.5 μM doxorubicin, 10 hours; HCC1143, MDA-MB-468, CAL51, MDA-MB-231
Experimental: as §1

[9] = tested on: de novo pyrimidine synthesis pathway in SUM-159PT cells; test: Isotope labeling with L-glutamine (amide-15N), flux through de novo pyrimidine synthesis; assay type: cell-based; conditions: 0.5 μM doxorubicin, 4 hours, then 1 hour labeling
Experimental: Isotope labeling: Ham's F12 medium lacking glutamine (Sigma-Aldrich) was supplemented with 100 μM L-glutamine (amide-^15N). SUM-159PT cells were treated with doxorubicin for 4 hours, at which point medium containing doxorubicin was aspirated and labeled medium was added to the cells. After 1 hour of labeling, cellular metabolites were extracted as described above and quantified using SRM on a 5500 QTRAP mass spectrometer using a protocol to detect ^15N-labelled isotopologues of metabolites in the de novo pyrimidine synthesis pathway.

[10] = tested on: CAD, ERK and S6K1 phosphorylation in SUM-159PT cells; test: Immunoblotting of CAD, ERK and S6K1 phosphorylation in SUM-159PT cells; assay type: cell-based
Experimental: (§3) Immunoblotting: Cells were washed with ice-cold PBS and lysed in radioimmunoprecipitation buffer (RIPA; 1% NP-40, 0.5% sodium deoxycholate, 0.1% SDS, 150 mmol/L NaCl, 50 mmol/L Tris-HCl, pH 7.5, protease inhibitor cocktail, 50 nmol/L calyculin A, 1 mmol/L sodium pyrophosphate, and 20 mmol/L sodium fluoride). Cell extracts were cleared by centrifugation and protein concentration was measured with the Bio-Rad DC protein assay. Lysates were then resolved on acrylamide gels by SDS-PAGE and transferred electrophoretically to nitrocellulose membrane (Bio-Rad). Blots were blocked in Tris-buffered saline (TBST) buffer (10 mmol/L Tris-HCl, pH 8, 150 mmol/L NaCl and 0.2% Tween 20) containing 5% (w/v) nonfat dry milk and then incubated with primary antibody overnight. Membranes were incubated with HRP-conjugated secondary antibody and developed using enhanced chemiluminescence substrate (EMD Millipore).

[11] = tested on: CAD phosphorylation in TNBC cell lines (HCC1143, MDA-MB-468, CAL-51 and MDA-MB-231); test: Immunoblotting of CAD phosphorylation in additional TNBC cell lines; assay type: cell-based; conditions: 0.5 μM doxorubicin, 4 hours; HCC1143, MDA-MB-468, CAL51, MDA-MB-231
Experimental: as §3

SUM-159PT cells [12] = test: Mitochondrial respiration (oxygen consumption rate, Seahorse analyzer); assay type: cell-based
Experimental: Mitochondrial respiration: Mitochondrial respiration was assessed using the Seahorse XFe-96 Analyzer (Seahorse Bioscience). SUM-159PT cells (50,000 cells per well) were treated with vehicle control, 0.5 μM Doxorubicin, 20 μM A771726, or the combination (A771726 & Doxorubicin) for 4 hours in normal media conditions. Following this incubation, media was changed to a non-buffered, serum-free Seahorse Media (Seahorse Bioscience, Catalog #102353) supplemented with 5 mM glucose, 2 mM L-glutamine, and 1 mM sodium pyruvate, and the oxygen consumption rate (OCR) was measured. In addition, OCR was measured for 30 minutes upon drug treatment and cells were subsequently challenged with either 1 μM Oligomycin or 0.5 μM Antimycin A to assess their effect on mitochondrial respiration. All experiments were normalized to cell number.

[13] = tested on: p-H2A.X (Ser139) in SUM-159PT cells; test: H2A.X phosphorylation (DNA damage) by immunoblotting and immunofluorescence; assay type: cell-based; conditions: 0.5 μM doxorubicin, 10 hours
Experimental: as §3
Immunofluorescence: Cells plated on coverslips were fixed with 2% paraformaldehyde for 10 minutes, permeabilized with 0.5% Triton X-100, and blocked with 1% BSA in 20 mmol/L Tris-HCl, pH 7.5, for 20 minutes. Coverslips were then incubated with Alexa Fluor® 647—conjugated anti-phospho H2A.X 5139 antibody (1:100) for 3 hours. […] Images of cells were acquired using a fluorescence microscope (Nikon Eclipse Ti) and digital image analysis software (NIS-Elements, Nikon).

[14] = tested on: MDA-MB-231 xenograft tumors; test: LC-MS/MS metabolomics profiling of MDA-MB-231 xenograft tumors; assay type: in vivo, nude mice; conditions: 1 mg/kg doxorubicin, 24 hours, versus vehicle-treated tumors
Experimental: as §2

[15] = 40 μM PALA, 0.5 μM doxorubicin 10 hours

SMILES: Cc1oncc1C(=O)Nc1ccc(C(F)(F)F)cc1 [leflunomide]
- growth of MDA-MB-231 tumor xenografts (tumor volume) [1]: did not significantly affect
- sensitization of MDA-MB-231 xenograft tumors to doxorubicin ([1]; leflunomide with doxorubicin 1 mg/kg): drastically sensitizes
- anti-tumor activity in tumor xenograft models (tumor xenograft models): anti-tumor activity
- tolerability in humans [2]: well tolerated

SMILES: N.N.[Cl][Pt][Cl] [cisplatin]
- dCTP and dTTP (pyrimidine nucleoside triphosphate) levels, fluorescence-based assay (SUM-159PT cells [3]): Elevated levels
- pyrimidine metabolite abundance, LC-MS/MS [4]: increases

SMILES: Cc1c(-c2ccc(-c3ccccc3F)cc2)nc2ccc(F)cc2c1C(=O)O [brequinar]
- single-agent activity (percentage of dead cells) (SUM-159PT cells [5]): minimal single-agent activity
- sensitization of SUM-159PT cells to doxorubicin (percentage of dead cells) (SUM-159PT cells [5]; then doxorubicin 48 hours): dramatically sensitized
- sensitization of ovarian cancer cells to doxorubicin (viability) [6]: sensitized

SMILES: O=C(O)C[C@H](NC(=O)CP(=O)(O)O)C(=O)O [PALA, N-(phosphonacetyl)-L-aspartate]
- effect on doxorubicin-induced alterations in dTTP levels (SUM-159PT cells [3]; [15]): did not inhibit
- effect on increase in dCTP levels induced by doxorubicin (SUM-159PT cells [3]; [15]): effectively abrogated
- single-agent activity (percentage of dead cells) (SUM-159PT cells [5]): minimal single-agent activity
- sensitization of SUM-159PT cells to doxorubicin (percentage of dead cells) (SUM-159PT cells [5]; then doxorubicin 48 hours): dramatically sensitized

SMILES: COc1cccc2c1C(=O)c1c(O)c3c(c(O)c1C2=O)C[C@@](O)(C(=O)CO)C[C@@H]3O[C@H]1C[C@H](N)[C@H](O)[C@H](C)O1 [doxorubicin]
- abundance of purine nucleotide species, LC-MS/MS (SUM-159PT cells [7]): elevated
- abundance of pyrimidine nucleotide species, LC-MS/MS (SUM-159PT cells [7]): increased the abundance of the majority of pyrimidine nucleotide species
- increase in deoxycytidine triphosphate (dCTP) level, LC-MS/MS (SUM-159PT cells [7]): greater than 2 fold
- increase in deoxythymidine triphosphate (dTTP) level, LC-MS/MS (SUM-159PT cells [7]): greater than 2 fold
- dCTP and dTTP (pyrimidine nucleoside triphosphate) levels, fluorescence-based assay (SUM-159PT cells [3]): robustly increased
- abundance of dCTP and dTTP [8]: increased the abundance
- incorporation of 15N-glutamine label into N-carbamoyl-aspartate [9]: significant increase
- ERK1/2 phosphorylation ([10]; 0.5 μM doxorubicin): increase
- phosphorylation state of CAD at the S6K1 site (Ser1859) ([10]; 0.5 μM doxorubicin): no measurable changes
- phosphorylation state of S6K1 ([10]; 0.5 μM doxorubicin): no measurable changes
- phosphorylation of CAD at the ERK site (Thr456) ([10]; 0.5 μM doxorubicin, within two hours): striking increase
- CAD Ser1859 phosphorylation [11]: No changes
- CAD Thr456 phosphorylation [11]: stimulated
- cell viability (percentage of dead cells) (SUM-159PT cells [5]; 0.5 μM doxorubicin alone, 48 hours, SUM-159PT): negligible effects on cell viability
- oxygen consumption rate (OCR) (SUM-159PT cells [12]; 0.5 μM doxorubicin or 20 μM A771726, 4 hours, 50,000 SUM-159PT cells): negligible effect
- sensitivity of OCR to oligomycin and antimycin (SUM-159PT cells [12]; 0.5 μM doxorubicin, 1 μM oligomycin, 0.5 μM Antimycin A): did not affect sensitivity
- DNA damage (histone H2A.X phosphorylation) [13]: effectively induced DNA damage
- abundance of pyrimidine nucleotide species in tumors, LC-MS/MS [14]: significant increase
- growth of MDA-MB-231 tumor xenografts (tumor volume) [1]: cytostatic
- pyrimidine metabolite abundance, LC-MS/MS [4]: increases

SMILES: O=c1ccn([C@@H]2O[C@H](CO)[C@@H](O)[C@H]2O)c(=O)[nH]1 [uridine]
- rescue: effect on efficacy of the A771726 plus doxorubicin combination treatment (percentage of dead cells) (SUM-159PT cells [5]; 100 μM uridine with 20 μM A771726 pre-treatment 12 hours, then doxorubicin 48 hours): completely blocked

SMILES: N#CC(=C(/N)Sc1ccccc1N)/C(C#N)=C(\N)Sc1ccccc1N [U0126]
- effect on increase in pyrimidine nucleotides following doxorubicin exposure (SUM-159PT cells [3]; 5 μM U0126, 0.5 μM doxorubicin 10 hours): effectively suppressed
- effect on doxorubicin-induced CAD Thr456 phosphorylation ([10]; 5 μM U0126 pre-treatment 12 hours, then 0.5 μM doxorubicin 4 hours): blocked
